Test results reported in patent publication US9187486B2 (AMGEN INC., priority 2011, dated 2015).
Like-named read-outs stand apart in the source and are kept apart here.

Key:
[1] = tested on: KMS-12-BM myeloma cell line; assay: Pim cell assay: phospho-BAD (S112) and total BAD in KMS-12-BM cells; assay type: cell-based; settings: 1 hour and 50 minutes incubation, read-out: KMS-12-BM IC50 IP
Procedure: The KMS-12-BM myeloma cell line was used to determine the in vitro cellular inhibition of Pim kinases. Disruption of Pim signaling by Pim inhibitors was determined by measuring the levels of phospho-BAD (S112) and total BAD. […] The cells were then incubated overnight at 37° C., 5% CO2. […] In addition to the 10-point dosing curve of the test compound, DMSO alone was run as a control. This dilution in DMSO was then diluted again into cell growth medium. Aliquots (11.1 uL) of the compound diluted in growth medium were then transferred to the appropriate wells of the 96-well plates containing cells to yield a final DMSO concentration of 0.3%. The cell plates were then incubated with compound for 1 hour and 50 minutes at 37° C., 5% CO2. After the 1 hour and 50 min incubation, the cell plates were spun at 1000 RPM for 10 minutes and the compound-containing medium was removed. […] The cell plates containing lysis buffer were then immediately stored at −70° C. These prepared lysates were then assayed for phospho-(S112) and total-BAD according to the manufacturer's protocol (Meso Scale Diagnostics, Cat # K15103D-3). The plates were read on the MSD Sector Imager 6000, and results were calculated according to the assay protocol: ((% Phosphoprotein=((2×Phospho signal)/(Phospho signal+Total signal))×100)).

Pim-1 = Pim-1 (Homo sapiens (Human), UniProt P11309); assay: Pim enzyme assay (HTRF, phosphorylation of biotinylated-BAD (S112) peptide), Pim-1; assay type: biochemical; settings: full length recombinant Pim-1, biotinylated-BAD (S112) peptide, HTRF
Excerpt: (§1) Full-length human cDNAs encoding Pim-1 (MGC ID 3913552) or Pim-2 (IMAGE ID 5092935) were purchased from Invitrogen, Carlsbad, Calif. These cDNAs were used as templates in PCR reactions to produce full-length DNA clones of the PIMs. Oligonucleotide PCR primers for Pim-1 were 5′-[…]-3′ and 5′-[…]-3′. Oligonucleotide PCR primers for Pim-2 were 5′-[…]-3′ and 5′-[…]-3′. PCR products were digested with BclI and EcoRI for Pim-1 and BamHI and EcoRI for Pim-2 and ligated into a modified baculovirus transfer vector (pFastBac 1) cleaved with BamHI and EcoRI. For bacterial expression, the same cleaved PCR products encoding Pim-1 or Pim-2 were ligated into a modified E. coli expression vector pET28(a) cleaved with BamHI and EcoRI. Amino-terminal hexahistidine tags followed by a thrombin cleavage site were previously added to the vectors using standard methods of molecular biology. Recombinant baculoviruses expressing Pim-1 or Pim-2 were made using standard methods (Fastbac manual, Invitrogen, Carlsbad, Calif.). Infection of Sf9 cells was done at an m.o.i. of greater than 5 for 24-48 h. Cells were harvested by centrifugation and frozen at −80 C. For E. coli expression, cells carrying pET28-His6-Th-Pim-1 or pET28-His6-Th-Pim-2 were picked from a single colony and grown o/n in LB media. The o/n culture was used to inoculate a 2 liter flask with 500 mL media. This was grown o/n and used to inoculate 15-20 liters of Terrific Broth in a New Brunswick Scientific fermentor. The E. coli were grown at 37° C. to and OD600>1.6. The temperature was dropped to 18° C. and o/n expression was induced with 0.5 mM IPTG. Cells were harvested by centrifugation and frozen at −80° C.
(§2) The frozen cell pellets were thawed by stirring in chilled lysis buffer (0.05 M HEPES, pH 8.0, 0.25 M NaCl, 0.01 M 2-mercaptoethanol, 10% (w/v) glycerol, 0.5% (v/v) protease inhibitor cocktail (Sigma P-8340) at a ratio of 1 L/200 g cells until homogeneous. The thawed suspension was applied to a microfluidizer at 10,000 PSI to disrupt the cells and the whole lysates were clarified by centrifugation at 50,000×g for 90 min, 4° C. Imidazole was added to the clarified lysate to a final concentration of 2.5 mM and the lysate was mixed with 10 mL of Talon resin (Clontech) and the slurry rocked gently overnight at 4° C. The slurry was centrifuged at 1,000×g for 5 min, the supernatant decanted, and the resin suspended in 40 mL of lysis wash buffer (lysis buffer at 0.75 M NaCl). This step was repeated 3× and the resin was transferred to a 2.5 cm glass column. Ten column volumes of wash buffer (0.05 M HEPES, pH 8.0, 0.1 M NaCl, 0.01 M 2-mercaptoethanol, 10% (w/v) glycerol) were applied to the resin followed by 10 column volumes of elution buffer (0.05 M HEPES, pH 8.0, 0.25 M NaCl, 0.01 M 2-mercaptoethanol, 10% (w/v) glycerol, 0.1 M imidazole). Fractions were analyzed by SDS-PAGE and those containing the protein of interest were pooled and concentrated. The concentrated protein was applied to an Amersham Superdex 75 (XK 26/60) column equilibrated in 0.025 M Tris-HCl, pH 7.5, 0.1 M NaCl, 0.01 M 2-mercaptoethanol, 10% (w/v) glycerol. […] Fractions containing the monomeric protein of interest were pooled, concentrated to ˜2 mg/mL, and stored at −80° C.
(§3) The phosphorylation of biotinylated-BAD (S112) peptide by full length recombinant Pim-1, Pim-2, or Pim-3 protein was detected with streptavidin:Allophycocyanin (APC) conjugate and a europium (Eu) labeled antibody directed against phosphorylated-BAD (S112). Excitation of Eu by a high energy laser light (337 nm) leads to a transfer of energy to the APC molecule, and results in an emission at 665 nm. The fluorescence is directly proportional to the amount of phosphorylated BAD peptide present in the reaction.

Pim-2 = Pim-2 (Homo sapiens (Human), UniProt Q9P1W9); assay: Pim enzyme assay (HTRF, phosphorylation of biotinylated-BAD (S112) peptide), Pim-2; assay type: biochemical; settings: full length recombinant Pim-2, biotinylated-BAD (S112) peptide, HTRF
Excerpt: as §1, §2, §3

[2] = 96-well, read-out: Pim-1 IC50 IP
[3] = 96-well, read-out: Pim-2 IC50 IP

Sequence of Pim-2 (Q9P1W9 whole entry): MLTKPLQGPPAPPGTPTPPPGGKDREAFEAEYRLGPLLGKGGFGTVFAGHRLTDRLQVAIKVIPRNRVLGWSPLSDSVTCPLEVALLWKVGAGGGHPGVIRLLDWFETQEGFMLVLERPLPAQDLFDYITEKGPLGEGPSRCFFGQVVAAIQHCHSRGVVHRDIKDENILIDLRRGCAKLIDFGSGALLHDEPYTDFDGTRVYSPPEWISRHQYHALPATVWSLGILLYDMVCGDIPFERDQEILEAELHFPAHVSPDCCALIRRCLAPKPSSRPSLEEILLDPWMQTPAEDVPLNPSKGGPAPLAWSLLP
Sequence of Pim-1 (P11309 whole entry): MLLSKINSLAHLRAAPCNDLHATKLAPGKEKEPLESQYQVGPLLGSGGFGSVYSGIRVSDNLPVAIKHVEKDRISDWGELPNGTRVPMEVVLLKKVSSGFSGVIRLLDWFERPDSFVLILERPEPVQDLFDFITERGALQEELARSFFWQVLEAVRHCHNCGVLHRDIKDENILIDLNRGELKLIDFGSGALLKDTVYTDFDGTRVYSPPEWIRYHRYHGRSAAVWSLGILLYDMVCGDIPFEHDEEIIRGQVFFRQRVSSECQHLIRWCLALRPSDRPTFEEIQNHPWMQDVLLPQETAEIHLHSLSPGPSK

Compound: C[C@@H]1CN(c2ccncc2Nc2ncc3ccc(-c4c(F)cccc4F)nn23)[C@@H](C)CN1 (single isomer, unassigned) [Example 52, 2-(2,6-difluorophenyl)-N-(4-((trans)-2,5-dimethyl-1-piperazinyl)-3-pyridinyl)imidazo[1,5-b]pyridazin-7-amine]
- IC50 ([1]; Homo sapiens, KMS-12-BM): > 15800 nM

Compound: N[C@@H]1C=C(c2ccncc2Nc2ncc3ccc(-c4c(F)cccc4F)nn23)CCC1 (racemic) [Example 82, rac-N-(4-(3-aminocyclohex-1-en-1-yl)pyridin-3-yl)-2-(2,6-difluorophenyl)imidazo[1,5-b]pyridazin-7-amine tris(2,2,2-trifluoroacetate)]
- IC50 (Pim-1; [2]): 1.2 nM
- IC50 ([1]; Homo sapiens, KMS-12-BM): 1200 nM

Compound: C[C@H]1CC[C@H](N)CN1c1ccncc1Nc1ncc2ccc(-c3ncccc3F)nn12 (single isomer, unassigned) [Example 97, N-(4-((trans)-5-amino-2-methylpiperidin-1-yl)pyridin-3-yl)-2-(3-fluoropyridin-2-yl)imidazo[1,5-b]pyridazin-7-amine tris(2,2,2-trifluoroacetate)]
- IC50 ([1]; Homo sapiens, KMS-12-BM): 362 nM

Compound: N[C@@H]1CN(c2ccncc2Nc2ncc3ccc(-c4c(F)cccc4F)nn23)CC[C@H]1F (single isomer, unassigned) [Example 45, N-(4-(trans-3-amino-4-fluoropiperidin-1-yl)pyridin-3-yl)-2-(2,6-difluorophenyl)imidazo[1,5-b]pyridazin-7-amine]
- IC50 [1]: 1070 nM

Compound: C[C@H]1CC[C@@H](N)CN1c1ccncc1Nc1ncc2ccc(-c3ncccc3F)nn12 (single isomer, unassigned) [Example 94, N-(4-((cis)-5-amino-2-methylpiperidin-1-yl)pyridin-3-yl)-2-(3-fluoropyridin-2-yl)imidazo[1,5-b]pyridazin-7-amine tris(2,2,2-trifluoroacetate)]
- IC50 ([1]; tris(2,2,2-trifluoroacetate)): 14100 nM

Compound: C[C@@H]1C[C@H](N)CN(c2ccncc2Nc2ncc3ccc(-c4c(F)cccc4F)nn23)C1 (single isomer, unassigned) [Example 38, N-(4-((cis)-3-amino-5-methylpiperidin-1-yl)pyridin-3-yl)-2-(2,6-difluorophenyl)imidazo[1,5-b]pyridazin-7-amine]
- IC50 [1]: 27.6 nM

Compound: C[C@H]1CC[C@H](N)CN1c1ccncc1Nc1ncc2ccc(-c3c(F)cccc3F)nn12 (single isomer, unassigned) [Example 87, N-(4-(5-amino-2-methylpiperidin-1-yl)pyridin-3-yl)-2-(2,6-difluorophenyl)imidazo[1,5-b]pyridazin-7-amine tris(2,2,2-trifluoroacetate)]
- IC50 ([1]; tris(2,2,2-trifluoroacetate)): 48.8 nM

Compound: N[C@@H]1CN(c2ccncc2Nc2ncc3ccc(-c4c(F)cccc4F)nn23)CC[C@H]1F (racemic) [Example 43, rac-N-(4-(trans-3-amino-4-fluoropiperidin-1-yl)pyridin-3-yl)-2-(2,6-difluorophenyl)imidazo[1,5-b]pyridazin-7-amine]
- IC50 ([1]; Homo sapiens, KMS-12-BM): 465 nM

Compound: N[C@@H]1C=C(c2ccncc2Nc2ncc3ccc(-c4c(F)cccc4F)nn23)CCC1 (single isomer, unassigned) [Example 83, N-(4-(3-aminocyclohex-1-en-1-yl)pyridin-3-yl)-2-(2,6-difluorophenyl)imidazo[1,5-b]pyridazin-7-amine tris(2,2,2-trifluoroacetate)]
- IC50 (Pim-1; [2]): 1.1 nM
- IC50 ([1]; Homo sapiens, KMS-12-BM): 1090 nM

Compound: C[C@H]1CN(c2ccncc2Nc2ncc3ccc(-c4c(F)cccc4F)nn23)[C@@H](C)CN1 [Example 49, 2-(2,6-difluorophenyl)-N-(4-((2S,5S)-2,5-dimethylpiperazin-1-yl)pyridin-3-yl)imidazo[1,5-b]pyridazin-7-amine]
- IC50 ([1]; Homo sapiens, KMS-12-BM): 12100 nM

Compound: C[C@@H]1C[C@H](N)CN(c2ccncc2Nc2ncc3ccc(-c4c(F)cccc4F)nn23)C1 (racemic) [Example 37, rac-N-(4-((cis)-3-amino-5-methylpiperidin-1-yl)pyridin-3-yl)-2-(2,6-difluorophenyl)imidazo[1,5-b]pyridazin-7-amine tris(2,2,2-trifluoroacetate)]
- IC50 ([1]; Homo sapiens, KMS-12-BM): 95 nM

Compound: C[C@@H]1C[C@H](N)CN(c2ccncc2Nc2ncc3ccc(-c4c(F)cccc4F)nn23)C1 (single isomer, unassigned) [Example 39, N-(4-((cis)-3-amino-5-methylpiperidin-1-yl)pyridin-3-yl)-2-(2,6-difluorophenyl)imidazo[1,5-b]pyridazin-7-amine]
- IC50 [1]: 1750 nM

Compound: C[C@H]1CN(c2ccncc2Nc2ncc3ccc(-c4c(F)cccc4F)nn23)CCN1 [Example 58, (S)-2-(2,6-difluorophenyl)-N-(4-(3-methylpiperazin-1-yl)pyridin-3-yl)imidazo[1,5-b]pyridazin-7-amine bis(2,2,2-trifluoroacetate)]
- IC50 (Pim-1; [2]): 11.8 nM
- IC50 (Pim-2; [3]): 65.9 nM

Compound: C[C@H]1CC[C@H](N)CN1c1ccncc1Nc1ncc2ccc(-c3c(F)cccc3F)nn12 (single isomer, unassigned) [Example 88, N-(4-(5-amino-2-methylpiperidin-1-yl)pyridin-3-yl)-2-(2,6-difluorophenyl)imidazo[1,5-b]pyridazin-7-amine tris(2,2,2-trifluoroacetate)]
- IC50 ([1]; tris(2,2,2-trifluoroacetate)): 9820 nM

Compound: CN[C@H]1CCCN(c2ccncc2Nc2ncc3ccc(-c4c(F)cccc4F)nn23)C1 [Example 59, (S)-2-(2,6-difluorophenyl)-N-(4-(3-(methylamino)piperidin-1-yl)pyridin-3-yl)imidazo[1,5-b]pyridazin-7-amine]
- IC50 (Pim-1; [2]): 2 nM
- IC50 (Pim-2; [3]): 31 nM

Compound: COC(C)CN(C)c1ccncc1Nc1ncc2ccc(-c3c(F)cccc3F)nn12 (centres unmarked) [Example 77, N3-(2-(2,6-difluorophenyl)imidazo[1,5-b]pyridazin-7-yl)-N4-(2-methoxypropyl)-N4-methylpyridine-3,4-diamine]
- IC50 (Pim-1; [2]): 150 nM
- IC50 (Pim-2; [3]): > 1000 nM

Compound: O[C@@H]1CCCN(c2ccncc2Nc2ncc3ccc(-c4ccccc4Cl)nn23)C1 [Example 17, (3R)-1-(3-((2-(2-chlorophenyl)imidazo[1,5-b]pyridazin-7-yl)amino)-4-pyridinyl)-3-piperidinol]
- IC50 (Pim-1; read-out: Pim_1_IC50): 192 nM
- IC50 (Pim-2; read-out: Pim2_IC50): > 1000 nM
